From patent US8268815B2, “Pyrimidine compounds and use thereof” (Abbott GmbH & Co. KG, priority 2004, dated 2012)

Tests used:
[1] = molecular target: T1, human dopamine D3 receptors (Homo sapiens, UniProt P35462); test: Dopamine D3 receptor binding, displacement of [125I]-iodosulpiride; settings: membranes from HEK-293 cells with stably expressed human D3 receptors, 0.1 nM [125I]-iodosulpiride
T1 construct: expressed in transfected cells
Protocol: (§1) The substance to be tested was dissolved either in methanol/Chremophor® (BASF-AG) or in dimethyl sulfoxide and then diluted with water to the desired concentration.
(§2) Triplicate mixtures were carried out.
The incubation buffer comprised 50 mM Tris, 120 mM NaCl, 5 mM KCl, 2 mM CaCl2, 2 mM MgCl2 and 0.1% bovine serum albumin, 10 μM quinolone, 0.1% ascorbic acid (prepared fresh each day). The buffer was adjusted to pH 7.4 with HCl.
(§3) III. Measurement and Evaluation:
(§4) After incubation at 25° C. for 60 minutes, the mixtures were filtered under vacuum through Whatman GF/B glass fiber filters using a cell harvester. The filters were transferred by a filter transfer system into scintillation vials. After addition of 4 ml of Ultima Gold® (Packard), the samples were shaken for one hour and then the radioactivity was counted in a beta counter (Packard, Tricarb 2000 or 2200CA). The cp values were converted into dpm by means of a standard quench series with the aid of the instrument's own program.
(§5) Evaluation of the inhibition plots took place by iterative nonlinear regression analysis using the Statistical Analysis System (SAS) similar to the “LIGAND” program described by Munson and Rodbard.

[2] = molecular target: T2, human dopamine D2L receptors (long isoform) (Homo sapiens, UniProt P14416); test: Dopamine D2L receptor binding, displacement of [125I]-iodospiperone; settings: ratio Ki(D2L)/Ki(D3); HEK-293 membranes
T2 construct: expressed in transfected cells
T2 sequence (P14416 whole entry, canonical isoform): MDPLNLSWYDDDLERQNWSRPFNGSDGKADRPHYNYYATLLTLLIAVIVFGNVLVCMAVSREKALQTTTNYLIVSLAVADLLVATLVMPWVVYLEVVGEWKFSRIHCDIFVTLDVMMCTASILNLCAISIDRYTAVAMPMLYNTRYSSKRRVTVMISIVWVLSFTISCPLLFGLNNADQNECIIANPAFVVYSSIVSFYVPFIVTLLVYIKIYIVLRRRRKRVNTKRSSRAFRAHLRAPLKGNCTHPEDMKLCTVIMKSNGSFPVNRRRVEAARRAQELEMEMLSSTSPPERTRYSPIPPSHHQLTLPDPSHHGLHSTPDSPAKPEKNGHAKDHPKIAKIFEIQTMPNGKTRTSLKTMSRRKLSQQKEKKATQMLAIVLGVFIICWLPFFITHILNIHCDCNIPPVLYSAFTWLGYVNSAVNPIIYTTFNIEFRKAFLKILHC
Protocol: as §1
II. Dopamine D2L Receptor:
as §2
The incubation buffer comprised 50 mM Tris, 120 mM NaCl, 5 mM KCl, 2 mM CaCl2, 2 mM MgCl2 and 0.1% bovine serum albumin. The buffer was adjusted to pH 7.4 with HCl.
as §3, §4, §5

T1 sequence (P35462 whole entry): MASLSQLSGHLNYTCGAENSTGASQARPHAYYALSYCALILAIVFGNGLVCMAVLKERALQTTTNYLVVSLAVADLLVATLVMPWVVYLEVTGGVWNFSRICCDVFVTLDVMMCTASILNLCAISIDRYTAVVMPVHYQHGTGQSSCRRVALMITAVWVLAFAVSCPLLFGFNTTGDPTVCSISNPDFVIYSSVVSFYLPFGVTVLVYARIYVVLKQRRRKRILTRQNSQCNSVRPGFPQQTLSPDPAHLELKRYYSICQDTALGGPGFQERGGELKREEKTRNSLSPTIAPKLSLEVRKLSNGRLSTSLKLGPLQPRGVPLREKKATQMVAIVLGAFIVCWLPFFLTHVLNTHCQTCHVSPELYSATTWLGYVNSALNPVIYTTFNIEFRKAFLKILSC

Row | Structure (SMILES) | Ki [1] [nM] | Selectivity vs. D2L (Ki(D2L)/Ki(D3)) [2]
1 | CC(C)(C)c1nc(N2CCN(CCCN3C(=O)CCc4ccccc43)CC2)cc(C(F)(F)F)n1.Cl [Example 1, 1-[2-tert-Butyl-6-(trifluoromethyl)pyrimidin-4-yl]-4-[3-(2-oxo-3,4-dihydroquinolin-1(2H)-yl)propyl]piperazin-4-ium chloride] | 3.43 | 37
2 | CC(C)(C)c1nc(N2CCN(C/C=C/CN3C(=O)CCc4ccccc43)CC2)cc(C(F)(F)F)n1 [Example 10, 1-((2E)-4-{4-[2-tert-Butyl-6-(trifluoromethyl)pyrimidin-4-yl]piperazin-1-yl}but-2-enyl)-3,4-dihydroquinolin-2(1H)-one] | 9.2 | –
3 | CCCc1cc(N2CCN(CCCCN3C(=O)CCc4c(OC)cccc43)CC2)nc(C(C)(C)C)n1 [Example 33, 1-{4-[4-(2-tert-Butyl-6-propylpyrimidin-4-yl)piperazin-1-yl]butyl}-5-methoxy-3,4-dihydroquinolin-2(1H)-one] | 1.71 | 65
4 | CC(C)(C)c1nc(C(F)F)cc(N2CCN(CCCCN3C(=O)CCc4c(O)cccc43)CC2)n1 [Example 36, 1-(4-{4-[2-tert-Butyl-6-(difluoromethyl)pyrimidin-4-yl]piperazin-1-yl}butyl)-5-hydroxy-3,4-dihydroquinolin-2(1H)-one] | 1.18 | 41
5 | CCCc1cc(N2CCN(CCCCN3C(=O)CCCc4c(OC)cccc43)CC2)nc(C(C)(C)C)n1 [Example 54, 1-{4-[4-(2-tert-Butyl-6-propyl-pyrimidin-4-yl)piperazin-1-yl]butyl}-6-methoxy-1,3,4,5-tetrahydro-benzo[b]azepin-2-one] | 2.25 | 25
6 | CCCc1cc(N2CCN(CCCCN3C(=O)CCCc4c(O)cccc43)CC2)nc(C(C)(C)C)n1 [Example 56, 4-(2-tert-butyl-6-propyl-pyrimidin-4-yl)-1-[4-(6-hydroxy-2-oxo-2,3,4,5-tetrahydro-benzo[b]azepin-1-yl)butyl]piperazine] | 0.69 | 26

Continued, values first:

Row | Ki [1] [nM] | Selectivity vs. D2L (Ki(D2L)/Ki(D3)) [2] | Structure (SMILES)
7 | 12.1 | 29 | CC(C)(C)c1nc(N2CCN(CCCN3C(=O)COc4ccccc43)CC2)cc(C(F)(F)F)n1 [Example 2, 4-(3-{4-[2-tert-Butyl-6-(trifluoromethyl)pyrimidin-4-yl]piperazin-1-yl}propyl)-2H-1,4-benzoxazin-3(4H)-one]
8 | 1.59 | 38 | CCCc1cc(N2CCN(CCCCN3C(=O)CCc4ccccc43)CC2)nc(C(C)(C)C)n1 [Example 37, 1-{4-[4-(2-tert-Butyl-6-propylpyrimidin-4-yl)piperazin-1-yl]butyl}-3,4-dihydroquinolin-2(1H)-one]
9 | 1.54 | 29 | CCCc1cc(N2CCN(CCCCN3C(=O)CCC4=C3CCCC4=O)CC2)nc(C(C)(C)C)n1 [Example 44, 1-{4-[4-(2-tert-Butyl-6-propyl-pyrimidin-4-yl)piperazin-1-yl]butyl}-4,6,7,8-tetrahydro-1H,3H-quinoline-2,5-dione]
10 | 4.68 | 41 | CC(C)(C)c1nc(N2CCN(CCCCN3C(=O)CCC4=C3CCCC4=O)CC2)cc(C(F)(F)F)n1 [Example 45, 1-{4-[4-(2-tert-Butyl-6-trifluoromethyl-pyrimidin-4-yl)piperazin-1-yl]butyl}-4,6,7,8-tetrahydro-1H,3H-quinoline-2,5-dione]
